Values of other authors, collected in patent publication US20070072940A1, “Use of quinol derivatives thereof for cosmetic, dietary supplement or pharmaceutical compositions and compositions thereby obtained” (priority 2005, published 2007).

Columns and labels:
B. subtilis = settings: in vitro
S. aureus = settings: in vitro
fibrin = settings: through an action on the polymerization of fibrin
[1] = test system: skin trauma such as bruising or blemishes; settings: applied topically
[2] = test system: lipid peroxidation in liposomes
[3] = results combined with previous research
[4] = test system: nutritional muscular dystrophy
[5] = test system: low density lipoprotein lipids

**Q.** What does the source list for `Cc1c(C)c2c(c(C)c1OP(=O)(O)O)CC[C@@](C)(CCC[C@H](C)CCC[C@H](C)CCCC(C)C)O2` [DL alpha tocopherol phosphate]?
**A.** antimicrobial action on B. subtilis (B. subtilis): antimicrobial action; antimicrobial action on S. aureus (S. aureus): antimicrobial action; anticoagulant action (fibrin): anticoagulant action

**Q.** Which “free radical scavenging ability, comparison” value (free radical) does the source give for `C/C(=C\Cc1c(C)c(O)c2ccccc2c1O)CCC[C@H](C)CCC[C@H](C)CCCC(C)C` [Phylloquinol] here?
**A.** Its value is “greater than that of alpha tocopherol quinol, plastoquinol, and alpha tocopherol”.

**Q.** Which “free radical scavenging ability, comparison” value (free radical) does the source give for `CC(C)=CCC/C(C)=C/CC/C(C)=C/CC/C(C)=C/CC/C(C)=C/CC/C(C)=C/CC/C(C)=C/CC/C(C)=C/CC/C(C)=C/Cc1cc(O)c(C)c(C)c1O` [Plastoquinol] here?
**A.** Its value is “greater than that of ubiquinol and alpha tocopherol”.

**Q.** With `CC1=C(C/C=C(\C)CCC[C@H](C)CCC[C@H](C)CCCC(C)C)C(=O)c2ccccc2C1=O` [Vitamin K, Phytonadione] as the compound, how does the “reduction of severity of skin trauma” value [1] read?
**A.** Its value is “ability to reduce the severity of skin trauma”.

**Q.** For `Cc1c(C)c(O)c(CC[C@](C)(O)CCC[C@H](C)CCC[C@H](C)CCCC(C)C)c(C)c1O` [alpha tocopherol quinol], which “inhibition of lipid peroxidation” value [2] is on record?
**A.** The value was “shown to inhibit lipid peroxidation”.

**Q.** What about the “inhibition of lipid peroxidation in liposomes, comparison” value ([2]; liposomes, compared with alpha tocopherol quinone) of the same compound?
**A.** Its value is “superior inhibition of lipid peroxidation in liposomes”.

**Q.** And the toxicity [3]?
**A.** The toxicity was “non-toxic”.

**Q.** What about the “free radical scavenging ability, comparison” value (free radical) of the same compound?
**A.** The value was “greater than that of ubiquinol and alpha tocopherol”.

**Q.** And the “prevention and treatment of nutritional muscular dystrophy” value ([4]; rabbit, injectable and oral)?
**A.** The value was “could prevent and treat nutritional muscular dystrophy”.

**Q.** And the “prevention of creatinuria and loss of weight caused by vitamin E deficiency” value ([4]; vitamin E deficiency)?
**A.** The value was “could prevent creatinuria and loss of weight”.

**Q.** What about the “interception of aqueous peroxyl radicals” value [5] of the same compound?
**A.** The value was “directly intercepted aqueous peroxyl radicals”.

**Q.** What about the “reduction of lipoprotein ubiquinone to ubiquinol” value ([5]; associated with LDL) of the same compound?
**A.** Its value is “instantaneously reduce the lipoprotein ubiquinone to ubiquinol”.

**Q.** And the “quenching of alpha tocopheroxyl radicals” value ([5]; in oxidizing LDL)?
**A.** Its value is “rapidly quenched alpha tocopheroxyl radicals”.

**Q.** And the “inhibition of radical initiated oxidation of low density lipoprotein lipids” value ([5]; in vitro)?
**A.** The value was “efficient multifunctional inhibitor”.

**Q.** Which “inhibition of lipid peroxidation” value [2] does the source give for `CC1=C(C)C(=O)C(CC[C@](C)(O)CCC[C@H](C)CCC[C@H](C)CCCC(C)C)=C(C)C1=O` [alpha tocopherol quinone] here?
**A.** Its value is “shown to inhibit lipid peroxidation”.

**Q.** And the toxicity [3]?
**A.** Its toxicity is “non-toxic”.

**Q.** With Menaquinol as the compound, how does the “free radical scavenging ability, comparison” value (free radical) read?
**A.** Its value is “greater than that of alpha tocopherol quinol, plastoquinol, and alpha tocopherol”.
